This is an account of results in patent US8436043B2 (Takeda Pharmaceutical Company Limited, priority 2008, dated 2013).

T1 sequence (P47871 26-477): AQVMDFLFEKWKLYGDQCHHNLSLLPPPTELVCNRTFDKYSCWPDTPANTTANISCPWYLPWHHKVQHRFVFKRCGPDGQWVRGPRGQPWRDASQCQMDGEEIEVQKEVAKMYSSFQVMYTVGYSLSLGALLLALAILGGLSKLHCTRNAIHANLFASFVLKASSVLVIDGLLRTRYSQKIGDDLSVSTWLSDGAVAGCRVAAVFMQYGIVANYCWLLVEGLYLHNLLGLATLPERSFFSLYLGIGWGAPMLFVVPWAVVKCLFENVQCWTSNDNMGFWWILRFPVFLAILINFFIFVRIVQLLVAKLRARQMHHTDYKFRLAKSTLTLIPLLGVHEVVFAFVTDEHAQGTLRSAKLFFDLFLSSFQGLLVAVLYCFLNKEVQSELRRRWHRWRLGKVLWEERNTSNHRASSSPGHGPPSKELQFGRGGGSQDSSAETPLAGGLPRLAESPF

The assay has as its target T1, human glucagon receptor (Homo sapiens, UniProt P47871).
T1 construct: made in house; host or cells: FreeStyle CHO cells, transient transfection with pMSRαneo/hGCGR; membrane fraction (35,000 rpm pellet)
Description: Glucagon binding inhibitory activity ([125I]-glucagon binding to glucagon receptor membrane protein). The settings on record: test compound 10 μM; 0.4% DMSO = 0%, non-labeled glucagon 1 μM = 100%; read-out: inhibitory rate (%) at 10 μM. The method in brief:
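Receptor source was a membrane fraction of transiently transfected CHO cells bearing human receptor; 90 min room-temperature binding, filtration harvest, scintillation counting.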
As for `Cc1c(C(Nc2ccc(C(=O)N(C)CCC(=O)O)cc2)C2CCCCC2)sc2cnccc12` (stereo not drawn) [Example A136, 3-{[(4-{[cyclohexyl(3-methylthieno[2,3-c]pyridin-2-yl)methyl]amino}phenyl)carbonyl](methyl)amino}propanoic acid], the inhibition at 10 µM worked out at 62%.
`Cc1c(C(Nc2ccc(C(=O)NCCC(=O)O)cc2)C2CCCCC2)sc2cnccc12` (stereo not drawn) [Example A137, 3-{[(4-{[cyclohexyl(3-methylthieno[2,3-c]pyridin-2-yl)methyl]amino}phenyl)carbonyl]amino}propanoic acid]: the inhibition at 10 µM amounted to 75%.
To `Cc1c(C(Nc2ccc(C(=O)NCCC(=O)O)cc2)C2CCCCC2)sc2ccncc12` (stereo not drawn) [Example A138, 3-{[(4-{[cyclohexyl(3-methylthieno[3,2-c]pyridin-2-yl)methyl]amino}phenyl)carbonyl]amino}propanoic acid] belongs 85%.
With `Cc1c(C(Nc2ccc(C(=O)N(C)CCC(=O)O)cc2)C2CCCCC2)sc2ccncc12` (stereo not drawn) [Example A139, 3-{[(4-{[cyclohexyl(3-methylthieno[3,2-c]pyridin-2-yl)methyl]amino}phenyl)carbonyl](methyl)amino}propanoic acid], the inhibition at 10 µM is 76%.
The figure for `CCCCCCC(Nc1ccc(C(=O)NCCC(=O)O)cc1)c1cc2cc(Cl)ccc2n1C` (stereo not drawn) [Example A140, 3-{[(4-{[1-(5-chloro-1-methyl-1H-indol-2-yl)heptyl]amino}phenyl)carbonyl]amino}propanoic acid] is 83%.
As to `CCCCCCC(Nc1ccc(C(=O)N(C)CCC(=O)O)cc1)c1cc2cc(Cl)ccc2n1C` (stereo not drawn) [Example A141, 3-{[(4-{[1-(5-chloro-1-methyl-1H-indol-2-yl)heptyl]amino}phenyl)carbonyl](methyl)amino}propanoic acid], the inhibition at 10 µM was found to be 86%.
`Cc1c(C(Nc2ccc(C(=O)NCCC(=O)O)cc2)C2CCCCC2)sc2ncccc12` (stereo not drawn) [Example A142, 3-{[(4-{[cyclohexyl(3-methylthieno[2,3-b]pyridin-2-yl)methyl]amino}phenyl)carbonyl]amino}propanoic acid]: the inhibition at 10 µM is 87%.
Take `Cc1c(C(Nc2ccc(C(=O)N(C)CCC(=O)O)cc2)C2CCCCC2)sc2ncccc12` (stereo not drawn) [Example A143, 3-{[(4-{[cyclohexyl(3-methylthieno[2,3-b]pyridin-2-yl)methyl]amino}phenyl)carbonyl](methyl)amino}propanoic acid]: the inhibition at 10 µM was found to be 75%.
For the compound `Cc1c(C(Nc2ccc(C(=O)NCCC(=O)O)cc2)C2CCCCC2)sc2cccnc12` (stereo not drawn) [Example A144, 3-{[(4-{[cyclohexyl(3-methylthieno[3,2-b]pyridin-2-yl)methyl]amino}phenyl)carbonyl]amino}propanoic acid], the inhibition at 10 µM turned out to be 82%.
To `Cc1c(C(Nc2ccc(C(=O)N(C)CCC(=O)O)cc2)C2CCCCC2)sc2cccnc12` (stereo not drawn) [Example A145, 3-{[(4-{[cyclohexyl(3-methylthieno[3,2-b]pyridin-2-yl)methyl]amino}phenyl)carbonyl](methyl)amino}propanoic acid] belongs 76%; to `Cc1c(C(Nc2ccc(C(=O)N(C)CCC(=O)O)cc2)C2CCCCC2)sc2cc(C(F)(F)F)cnc12` (stereo not drawn) [Example A146, 3-[{[4-({cyclohexyl[3-methyl-6-(trifluoromethyl)thieno[3,2-b]pyridin-2-yl]methyl}amino)phenyl]carbonyl}(methyl)amino]propanoic acid], 77%; to `CSCCOc1ccc2oc(C(Nc3ccc(C(=O)N(C)CCC(=O)O)cc3)C3CCCCC3)c(C)c2c1` (stereo not drawn) [Example A147, 3-[({4-[(cyclohexyl{3-methyl-5-[2-(methylthio)ethoxy]-1-benzofuran-2-yl}methyl)amino]phenyl}carbonyl)(methyl)amino]propanoic acid], 99%.
The figure for `CSCCOc1ccc2oc(C(Nc3ccc(C(=O)NCCC(=O)O)cc3)C3CCCCC3)c(C)c2c1` (stereo not drawn) [Example A148, 3-[({4-[(cyclohexyl{3-methyl-5-[2-(methylthio)ethoxy]-1-benzofuran-2-yl}methyl)amino]phenyl}carbonyl)amino]propanoic acid] is 94%; for `COCCOc1ccc2oc(C(Nc3ccc(C(=O)NCCC(=O)O)cc3)C3CCCCC3)c(C)c2c1` (stereo not drawn) [Example A149, 3-[{[4-({cyclohexyl[5-(2-methoxyethoxy)-3-methyl-1-benzofuran-2-yl]methyl}amino)phenyl]carbonyl}amino]propanoic acid] it is 69%.
Consider `CSCCCOc1ccc2oc(C(Nc3ccc(C(=O)N(C)CCC(=O)O)cc3)C3CCCCC3)c(C)c2c1` (stereo not drawn) [Example A150, 3-[({4-[(cyclohexyl{3-methyl-5-[3-(methylsulfanyl)propoxy]-1-benzofuran-2-yl}methyl)amino]phenyl}carbonyl)(methyl)amino]propanoic acid], for which the inhibition at 10 µM worked out at 81%.
As to `CSCCCOc1ccc2oc(C(Nc3ccc(C(=O)NCCC(=O)O)cc3)C3CCCCC3)c(C)c2c1` (stereo not drawn) [Example A151, 3-[({4-[(cyclohexyl{3-methyl-5-[3-(methylsulfanyl)propoxy]-1-benzofuran-2-yl}methyl)amino]phenyl}carbonyl)amino]propanoic acid], the inhibition at 10 µM stood at 78%.
On to `Cc1c(C(Nc2ccc(C(=O)N(C)CCC(=O)O)cc2)C2CCCCC2)oc2ccc(OCCCS(C)(=O)=O)cc12` (stereo not drawn) [Example A152, 3-[({4-[(cyclohexyl{3-methyl-5-[3-(methylsulfonyl)propoxy]-1-benzofuran-2-yl}methyl)amino]phenyl}carbonyl)(methyl)amino]propanoic acid], for which the inhibition at 10 µM was determined as 76%.
Take `Cc1c(C(Nc2ccc(C(=O)NCCC(=O)O)cc2)C2CCCCC2)oc2ccc(OCCCS(C)(=O)=O)cc12` (stereo not drawn) [Example A153, 3-[({4-[(cyclohexyl{3-methyl-5-[3-(methylsulfonyl)propoxy]-1-benzofuran-2-yl}methyl)amino]phenyl}carbonyl)amino]propanoic acid]: the inhibition at 10 µM came out at 74%.
The figure for `Cc1c(C(Nc2ccc(C(=O)N(C)CCC(=O)O)cc2)C2CCCCC2)oc2ccc(OCc3ccccc3)cc12` (stereo not drawn) [Example A154, 3-[{[4-({[5-(benzyloxy)-3-methyl-1-benzofuran-2-yl](cyclohexyl)methyl}amino)phenyl]carbonyl}(methyl)amino]-propanoic acid] is 82%; for `Cc1c(C(Nc2ccc(C(=O)N(C)CCC(=O)O)cc2)C2CCCCC2)oc2ccc(OCc3ccccn3)cc12` (stereo not drawn) [Example A155, 3-[{[4-({cyclohexyl[3-methyl-5-(pyridin-2-ylmethoxy)-1-benzofuran-2-yl]methyl}amino)phenyl]carbonyl}(methyl)amino]propanoic acid] it is 81%.
For `Cc1c(C(Nc2ccc(C(=O)N(C)CCC(=O)O)cc2)C2CCCCC2)oc2ccc(OCc3cccnc3)cc12` (stereo not drawn) [Example A156, 3-[{[4-({cyclohexyl[3-methyl-5-(pyridin-3-ylmethoxy)-1-benzofuran-2-yl]methyl}amino)phenyl]carbonyl}(methyl)amino]propanoic acid], the inhibition at 10 µM worked out at 80%.
For the compound `Cc1c(C(Nc2ccc(C(=O)N(C)CCC(=O)O)cc2)C2CCCCC2)oc2ccc(OCc3ccncc3)cc12` (stereo not drawn) [Example A157, 3-[{[4-({cyclohexyl[3-methyl-5-(pyridin-4-ylmethoxy)-1-benzofuran-2-yl]methyl}amino)phenyl]carbonyl}(methyl)amino]propanoic acid], the inhibition at 10 µM is 80%.
On to `Cc1c(C(Nc2ccc(C(=O)NCCC(=O)O)cc2)C2CCCCC2)oc2ccc(OCc3ccccc3)cc12` (stereo not drawn) [Example A158, 3-({[4-({[5-(benzyloxy)-3-methyl-1-benzofuran-2-yl](cyclohexyl)methyl}amino)phenyl]carbonyl}amino)propanoic acid], for which the inhibition at 10 µM was found to be 79%.
For the compound `Cc1c(C(CC(C)C)Nc2ccc(C(=O)N(C)CCC(=O)O)cc2)oc2ccc(OCc3ccccc3)cc12` (stereo not drawn) [Example A159, 3-[{[4-({1-[5-(benzyloxy)-3-methyl-1-benzofuran-2-yl]-3-methylbutyl}amino)phenyl]carbonyl}(methyl)amino]propanoic acid], the inhibition at 10 µM was determined as 74%.
The figure for `Cc1c(C(Nc2ccc(C(=O)N(C)CCC(=O)O)cc2)C2CCCCC2)oc2ccc(OC3CCSCC3)cc12` (stereo not drawn) [Example A160, 3-[{[4-({cyclohexyl[3-methyl-5-(tetrahydro-2H-thiopyran-4-yloxy)-1-benzofuran-2-yl]methyl}amino)phenyl]carbonyl}(methyl)amino]propanoic acid] is 92%.
As for `Cc1c(C(Nc2ccc(C(=O)NCCC(=O)O)cc2)C2CCCCC2)oc2cccc(F)c12` (stereo not drawn) [Example A161, 3-{[(4-{[cyclohexyl(4-fluoro-3-methyl-1-benzofuran-2-yl)methyl]amino}phenyl)carbonyl]amino}propanoic acid], the inhibition at 10 µM turned out to be 84%.
With `Cc1c(C(Nc2ccc(C(=O)N(C)CCC(=O)O)cc2)C2CCCCC2)oc2cccc(F)c12` (stereo not drawn) [Example A162], the inhibition at 10 µM is 79%.
On to `Cc1c(C(Nc2ccc(C(=O)NCCC(=O)O)cc2)C2CCCCC2)oc2c(F)cc(F)cc12` (stereo not drawn) [Example A163, 3-{[(4-{[cyclohexyl(5,7-difluoro-3-methyl-1-benzofuran-2-yl)methyl]amino}phenyl)carbonyl]amino}propanoic acid], for which the inhibition at 10 µM came out at 87%.
On to `Cc1c(C(Nc2ccc(C(=O)N(C)CCC(=O)O)cc2)C2CCCCC2)oc2c(F)cc(F)cc12` (stereo not drawn) [Example A164, 3-{[(4-{[cyclohexyl(5,7-difluoro-3-methyl-1-benzofuran-2-yl)methyl]amino}phenyl)carbonyl](methyl)amino}propanoic acid], for which the inhibition at 10 µM was 85%.
As to `Cc1c(C(C)Nc2ccc(C(=O)NCCC(=O)O)cc2)oc2ccc(OCc3ccccc3)cc12` (stereo not drawn) [Example A165, 3-({[4-({1-[5-(benzyloxy)-3-methyl-1-benzofuran-2-yl]ethyl}amino)phenyl]carbonyl}amino)propanoic acid], the inhibition at 10 µM was found to be 85%.
